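Test compounds were applied to cells in 96-well plates for 48 hours at 5 doses. GI50 is the concentration that inhibits growth by half. TGI marks complete inhibition of growth.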
Columns and labels:
Assay in all cases: DTP human tumour cell line panel, 48 h
786-0 renal = system: 786-0 renal
A498 renal = system: A498 renal
A549 NSCLC = system: A549 NSCLC
ACHN renal = system: ACHN renal
BT-549 breast = system: BT-549 breast
CAKI-1 renal = system: CAKI-1 renal
CCRF-CEM leukemia = system: CCRF-CEM leukemia
DU-145 prostate = system: DU-145 prostate
HCC-2998 colon = system: HCC-2998 colon
HCT-116 colon = system: HCT-116 colon
HCT-15 colon = system: HCT-15 colon
HL-60(TB) leukemia = system: HL-60(TB) leukemia
HOP-62 NSCLC = system: HOP-62 NSCLC
HS 578T breast = system: HS 578T breast
HT29 colon = system: HT29 colon
IGROV1 ovarian = system: IGROV1 ovarian
K-562 leukemia = system: K-562 leukemia
KM12 colon = system: KM12 colon
LOX IMVI melanoma = system: LOX IMVI melanoma
M14 melanoma = system: M14 melanoma
MCF7 breast = system: MCF7 breast
MDA-MB-231 breast = system: MDA-MB-231 breast
MDA-MB-435 = system: MDA-MB-435
MOLT-4 leukemia = system: MOLT-4 leukemia
NCI-H226 lung = system: NCI-H226 lung
NCI-H460 lung = system: NCI-H460 lung
NCI-H522 lung = system: NCI-H522 lung
NCI/ADR-RES ovarian = system: NCI/ADR-RES ovarian
OVCAR-3 ovarian = system: OVCAR-3 ovarian
OVCAR-4 ovarian = system: OVCAR-4 ovarian
OVCAR-5 ovarian = system: OVCAR-5 ovarian
OVCAR-8 ovarian = system: OVCAR-8 ovarian
PC-3 prostate = system: PC-3 prostate
RPMI-8226 leukemia = system: RPMI-8226 leukemia
RXF 393 renal = system: RXF 393 renal
SF-268 CNS = system: SF-268 CNS
SF-295 CNS = system: SF-295 CNS
SF-539 CNS = system: SF-539 CNS
SK-MEL-2 melanoma = system: SK-MEL-2 melanoma
SK-MEL-28 melanoma = system: SK-MEL-28 melanoma
SK-MEL-5 melanoma = system: SK-MEL-5 melanoma
SK-OV-3 ovarian = system: SK-OV-3 ovarian
SN12C renal = system: SN12C renal
SNB-19 CNS = system: SNB-19 CNS
SNB-75 CNS = system: SNB-75 CNS
SR leukemia = system: SR leukemia
SW-620 colon = system: SW-620 colon
U251 CNS = system: U251 CNS
UACC-257 melanoma = system: UACC-257 melanoma
UACC-62 melanoma = system: UACC-62 melanoma
UO-31 renal = system: UO-31 renal
NCI-H23 lung = system: NCI-H23 lung
TK-10 renal = system: TK-10 renal

## Fc1ccc(Nc2ccnc(N3CCN(c4ccnc5cc(Cl)ccc45)CC3)n2)cc1
786-0 renal
  GI50: 2.28 µM
  TGI: 6.26 µM
A498 renal
  GI50: 1.81 µM
  TGI: 9.61 µM
A549 NSCLC
  GI50: 2.66 µM
  TGI: > 100 µM
ACHN renal
  GI50: 2.5 µM
  TGI: > 100 µM
BT-549 breast
  GI50: 2.95 µM
  TGI: 8.57 µM
CAKI-1 renal
  GI50: 1.83 µM
  TGI: 5.3 µM
CCRF-CEM leukemia
  GI50: 2.74 µM
  TGI: 10.5 µM
DU-145 prostate
  GI50: 3.96 µM
  TGI: 55.1 µM
HCC-2998 colon
  GI50: 3.4 µM
  TGI: 13.7 µM
HCT-116 colon
  GI50: 1.97 µM
  TGI: 5.24 µM
HCT-15 colon
  GI50: 2.3 µM
  TGI: 7.93 µM
HL-60(TB) leukemia
  GI50: 2.59 µM
  TGI: 6.44 µM
HOP-62 NSCLC
  GI50: 3.83 µM
  TGI: 65.4 µM
HS 578T breast
  GI50: 2.83 µM
  TGI: 39 µM
HT29 colon
  GI50: 1.46 µM
  TGI: 3.14 µM
IGROV1 ovarian
  GI50: 3.38 µM
  TGI: 30.9 µM
K-562 leukemia
  GI50: 2.18 µM
  TGI: 6.62 µM
KM12 colon
  GI50: 2.33 µM
  TGI: 6.66 µM
LOX IMVI melanoma
  GI50: 1.82 µM
  TGI: 3.62 µM
M14 melanoma
  GI50: 1.89 µM
  TGI: 4.25 µM
MCF7 breast
  GI50: 2.36 µM
  TGI: 8.26 µM
MDA-MB-231 breast
  GI50: 1.51 µM
  TGI: 4.33 µM
MDA-MB-435
  GI50: 1.93 µM
  TGI: 4.92 µM
MOLT-4 leukemia
  GI50: 2.76 µM
  TGI: 8.37 µM
NCI-H226 lung
  GI50: 2.52 µM
  TGI: 17.5 µM
NCI-H460 lung
  GI50: 1.74 µM
  TGI: 4.54 µM
NCI-H522 lung
  GI50: 2.03 µM
  TGI: 5.38 µM
NCI/ADR-RES ovarian
  GI50: 2.24 µM
  TGI: 6.41 µM
OVCAR-3 ovarian
  GI50: 2.53 µM
  TGI: 7.38 µM
OVCAR-4 ovarian
  GI50: 2.36 µM
  TGI: > 100 µM
OVCAR-5 ovarian
  GI50: 3.82 µM
  TGI: > 100 µM
OVCAR-8 ovarian
  GI50: 2.16 µM
  TGI: 6.12 µM
PC-3 prostate
  GI50: 1.73 µM
  TGI: 8.33 µM
RPMI-8226 leukemia
  GI50: 2.19 µM
  TGI: 6.22 µM
RXF 393 renal
  GI50: 3.39 µM
  TGI: 72.3 µM
SF-268 CNS
  GI50: 3.67 µM
  TGI: 40.3 µM
SF-295 CNS
  GI50: 1.33 µM
  TGI: 3.2 µM
SF-539 CNS
  GI50: 2.95 µM
  TGI: 10.3 µM
SK-MEL-2 melanoma
  GI50: 2.16 µM
  TGI: 4.07 µM
SK-MEL-28 melanoma
  GI50: 3.27 µM
  TGI: 12.9 µM
SK-MEL-5 melanoma
  GI50: 1.53 µM
  TGI: 2.96 µM
SK-OV-3 ovarian
  GI50: 5.02 µM
  TGI: > 100 µM
SN12C renal
  GI50: 2.57 µM
  TGI: > 100 µM
SNB-19 CNS
  GI50: 3.99 µM
  TGI: > 100 µM
SNB-75 CNS
  GI50: 2.43 µM
  TGI: > 100 µM
SR leukemia
  GI50: 2.61 µM
  TGI: 8.76 µM
SW-620 colon
  GI50: 2.92 µM
  TGI: 13.9 µM
U251 CNS
  GI50: 1.87 µM
  TGI: 5.27 µM
UACC-257 melanoma
  GI50: 1.95 µM
  TGI: 4.27 µM
UACC-62 melanoma
  GI50: 1.73 µM
  TGI: 4.53 µM
UO-31 renal
  GI50: 0.845 µM
  TGI: 4.54 µM

## O=c1[nH]c(=O)n(C2C[C@@H](O)[C@@H](CO)O2)cc1F (stereo partly specified)
786-0 renal
  TGI: > 100 µM
A498 renal
  TGI: 7.48 µM
A549 NSCLC
  TGI: > 100 µM
ACHN renal
  TGI: > 100 µM
BT-549 breast
  TGI: > 100 µM
CAKI-1 renal
  TGI: > 100 µM
CCRF-CEM leukemia
  GI50: 0.0198 µM
  TGI: > 100 µM
DU-145 prostate
  TGI: > 100 µM
HCC-2998 colon
  TGI: 4.45 µM
HCT-116 colon
  GI50: 0.0289 µM
  TGI: > 100 µM
HL-60(TB) leukemia
  GI50: 0.482 µM
  TGI: > 100 µM
HOP-62 NSCLC
  TGI: 0.956 µM
HT29 colon
  TGI: > 100 µM
K-562 leukemia
  GI50: 0.156 µM
  TGI: > 100 µM
LOX IMVI melanoma
  TGI: > 100 µM
MCF7 breast
  GI50: < 0.01 µM
  TGI: > 100 µM
MOLT-4 leukemia
  GI50: 0.0375 µM
NCI-H23 lung
  TGI: > 100 µM
NCI-H460 lung
  TGI: 9.8 µM
OVCAR-5 ovarian
  GI50: 8.4 µM
  TGI: > 100 µM
OVCAR-8 ovarian
  TGI: > 100 µM
RXF 393 renal
  TGI: 13.3 µM
SF-539 CNS
  TGI: > 60.8 µM
SK-MEL-28 melanoma
  GI50: 0.433 µM
  TGI: > 100 µM
SK-MEL-5 melanoma
  TGI: 0.385 µM
SNB-19 CNS
  TGI: > 100 µM
SNB-75 CNS
  TGI: > 21.4 µM
SR leukemia
  GI50: 0.184 µM
  TGI: > 38.1 µM
TK-10 renal
  TGI: > 100 µM
UACC-62 melanoma
  TGI: > 100 µM
UO-31 renal
  TGI: 30.3 µM

Source: PubChem BioAssay (NCI)
